Assay results: patent publication US12291519B2, “2-hydroxycycloalkane-1-carbamoyl” (Idorsia Pharmaceuticals Ltd, priority 2019, dated 2025)

Legend:
human Gal-1 (hGal-1) = experiment: Competitive binding assay: biotinylated hGal-1 binding to microplate-adsorbed asialofetuin (ASF); settings: Activity on hGal-1; binding of biotinylated hGal-1 to ASF-coated plates; mean values
Outline: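 Inhibition measured as loss of hGal-1 (biotinylated, 300–1000 ng/mL, wild type or Cys→Ser mutant) binding to adsorbed asialofetuin over 3 h at 4 °C. Bound lectin detected with streptavidin-HRP and ABTS (410 nm, 30–45 min); IC50 values averaged across repeat measurements.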

human Gal-3 (hGal-3) = human Gal-3 (hGal-3) (Homo sapiens (Human), UniProt P17931); experiment: Competitive binding assay: biotinylated hGal-3 binding to microplate-adsorbed asialofetuin (ASF); settings: Activity on hGal-3; binding of biotinylated hGal-3 to ASF-coated plates; mean values
Outline: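 Serially diluted compounds competed with biotinylated human Gal-3 for binding to plate-adsorbed asialofetuin over 3 h at 4 °C. Bound Gal-3 was detected with streptavidin-peroxidase (80 ng/mL, 1 h, 4 °C) and ABTS substrate. IC50 values are means of several measurements.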

Chain of human Gal-1 (hGal-1) (P09382 2-135 limits assumed): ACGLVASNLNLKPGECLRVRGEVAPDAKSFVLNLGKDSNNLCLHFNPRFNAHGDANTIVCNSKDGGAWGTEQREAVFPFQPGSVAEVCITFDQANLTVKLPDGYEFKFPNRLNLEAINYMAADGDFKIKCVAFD
Chain of human Gal-3 (hGal-3) (P17931 whole entry): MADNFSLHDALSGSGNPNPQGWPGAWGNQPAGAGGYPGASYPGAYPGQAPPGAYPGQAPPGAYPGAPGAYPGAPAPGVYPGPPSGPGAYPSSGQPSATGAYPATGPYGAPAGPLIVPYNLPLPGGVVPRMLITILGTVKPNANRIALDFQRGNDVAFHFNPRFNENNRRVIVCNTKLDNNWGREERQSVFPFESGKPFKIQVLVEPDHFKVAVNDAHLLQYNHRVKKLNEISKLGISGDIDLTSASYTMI

Row | SMILES | IC50 (human Gal-1 (hGal-1)) [nM] | IC50 (human Gal-3 (hGal-3)) [nM]
1 | CO[C@@H]1[C@@H](n2cc(-c3cc(F)c(F)c(F)c3)nn2)[C@@H](O)[C@@H](CO)O[C@H]1C(=O)N(c1ccc2nc(C)sc2c1)[C@H]1CCCC[C@@H]1O [Example 94, (2R,3R,4S,5R,6R)-5-hydroxy-N-((1S,2S)-2-hydroxycyclohexyl)-6-(hydroxymethyl)-3-methoxy-N-(2-methylbenzo[d]thiazol-6-yl)-4-(4-(3,4,5-trifluorophenyl)-1H-1,2,3-triazol-1-yl)tetrahydro-2H-pyran-2-carboxamide] | 254 | 31
2 | CO[C@@H]1[C@@H](n2cc(-c3cc(F)c(F)c(F)c3)nn2)[C@@H](O)[C@@H](CO)O[C@H]1C(=O)N(c1cc(Cl)cc(C(F)(F)F)c1)[C@H]1CCCC[C@@H]1O [Example 95, (2R,3R,4S,5R,6R)-N-(3-chloro-5-(trifluoromethyl)phenyl)-5-hydroxy-N-((1S,2S)-2-hydroxycyclohexyl)-6-(hydroxymethyl)-3-methoxy-4-(4-(3,4,5-trifluorophenyl)-1H-1,2,3-triazol-1-yl)tetrahydro-2H-pyran-2-carboxamide] | 398 | 16
3 | CO[C@@H]1[C@@H](n2cc(-c3cc(F)c(F)c(F)c3)nn2)[C@@H](O)[C@@H](CO)O[C@H]1C(=O)N(c1cc(Cl)cc(Br)c1)[C@H]1CCCC[C@@H]1O [Example 96, (2R,3R,4S,5R,6R)-N-(3-bromo-5-chlorophenyl)-5-hydroxy-N-((1S,2S)-2-hydroxycyclohexyl)-6-(hydroxymethyl)-3-methoxy-4-(4-(3,4,5-trifluorophenyl)-1H-1,2,3-triazol-1-yl)tetrahydro-2H-pyran-2-carboxamide] | 403 | 14
4 | CO[C@@H]1[C@@H](n2cc(-c3cc(F)c(F)c(F)c3)nn2)[C@@H](O)[C@@H](CO)O[C@H]1C(=O)N(c1cc(Br)cc(Br)c1)[C@H]1CCCC[C@@H]1O [Example 97, (2R,3R,4S,5R,6R)-N-(3,5-dibromophenyl)-5-hydroxy-N-((1S,2S)-2-hydroxycyclohexyl)-6-(hydroxymethyl)-3-methoxy-4-(4-(3,4,5-trifluorophenyl)-1H-1,2,3-triazol-1-yl)tetrahydro-2H-pyran-2-carboxamide] | 266 | 13
5 | CO[C@@H]1[C@@H](n2cc(-c3cc(F)c(F)c(F)c3)nn2)[C@@H](O)[C@@H](CO)O[C@H]1C(=O)N(c1ccc(Cl)c(Br)c1)[C@H]1CCCC[C@@H]1O [Example 99, (2R,3R,4S,5R,6R)-N-(3-bromo-4-chlorophenyl)-5-hydroxy-N-((1S,2S)-2-hydroxycyclohexyl)-6-(hydroxymethyl)-3-methoxy-4-(4-(3,4,5-trifluorophenyl)-1H-1,2,3-triazol-1-yl)tetrahydro-2H-pyran-2-carboxamide] | 377 | 32
6 | CO[C@@H]1[C@@H](n2cc(-c3cc(F)c(F)c(F)c3)nn2)[C@@H](O)[C@@H](CO)O[C@H]1C(=O)N(c1ccccc1)[C@H]1CCCC[C@@H]1O [Example 100, (2R,3R,4S,5R,6R)-5-hydroxy-N-((1S,2S)-2-hydroxycyclohexyl)-6-(hydroxymethyl)-3-methoxy-N-phenyl-4-(4-(3,4,5-trifluorophenyl)-1H-1,2,3-triazol-1-yl)tetrahydro-2H-pyran-2-carboxamide] | 18600 | 73
7 | COc1cccc(N(C(=O)[C@@H]2O[C@H](CO)[C@H](O)[C@H](n3cc(-c4cc(F)c(F)c(F)c4)nn3)[C@H]2OC)[C@H]2CCCC[C@@H]2O)c1 [Example 101, (2R,3R,4S,5R,6R)-5-hydroxy-N-((1S,2S)-2-hydroxycyclohexyl)-6-(hydroxymethyl)-3-methoxy-N-(3-methoxyphenyl)-4-(4-(3,4,5-trifluorophenyl)-1H-1,2,3-triazol-1-yl)tetrahydro-2H-pyran-2-carboxamide] | 800 | 36
8 | CO[C@@H]1[C@@H](n2cc(-c3cc(F)c(F)c(F)c3)nn2)[C@@H](O)[C@@H](CO)O[C@H]1C(=O)N(c1ccc2ccsc2c1)[C@H]1CCCC[C@@H]1O [Example 102, (2R,3R,4S,5R,6R)-N-(benzo[b]thiophen-6-yl)-5-hydroxy-N-((1S,2S)-2-hydroxycyclohexyl)-6-(hydroxymethyl)-3-methoxy-4-(4-(3,4,5-trifluorophenyl)-1H-1,2,3-triazol-1-yl)tetrahydro-2H-pyran-2-carboxamide] | 1240 | 43
9 | CO[C@@H]1[C@@H](n2cc(-c3cc(F)c(F)c(F)c3)nn2)[C@@H](O)[C@@H](CO)O[C@H]1C(=O)N(c1cccc(Br)c1)[C@H]1CCCC[C@@H]1O [Example 103, (2R,3R,4S,5R,6R)-N-(3-bromophenyl)-5-hydroxy-N-((1S,2S)-2-hydroxycyclohexyl)-6-(hydroxymethyl)-3-methoxy-4-(4-(3,4,5-trifluorophenyl)-1H-1,2,3-triazol-1-yl)tetrahydro-2H-pyran-2-carboxamide] | 238 | 25
10 | COc1cc(Cl)cc(N(C(=O)[C@@H]2O[C@H](CO)[C@H](O)[C@H](n3cc(-c4cc(F)c(F)c(F)c4)nn3)[C@H]2OC)[C@H]2CCCC[C@@H]2O)c1 [Example 104, (2R,3R,4S,5R,6R)-N-(3-chloro-5-methoxyphenyl)-5-hydroxy-N-((1S,2S)-2-hydroxycyclohexyl)-6-(hydroxymethyl)-3-methoxy-4-(4-(3,4,5-trifluorophenyl)-1H-1,2,3-triazol-1-yl)tetrahydro-2H-pyran-2-carboxamide] | 1190 | 19
11 | CO[C@@H]1[C@@H](n2cc(-c3cc(F)c(F)c(F)c3)nn2)[C@@H](O)[C@@H](CO)O[C@H]1C(=O)N(c1cc(Cl)ccc1F)[C@H]1CCCC[C@@H]1O [Example 105, (2R,3R,4S,5R,6R)-N-(5-chloro-2-fluorophenyl)-5-hydroxy-N-((1S,2S)-2-hydroxycyclohexyl)-6-(hydroxymethyl)-3-methoxy-4-(4-(3,4,5-trifluorophenyl)-1H-1,2,3-triazol-1-yl)tetrahydro-2H-pyran-2-carboxamide] | 136 | 14
12 | CO[C@@H]1[C@@H](n2cc(-c3cc(F)c(F)c(F)c3)nn2)[C@@H](O)[C@@H](CO)O[C@H]1C(=O)N(c1cc2sc(C)nc2cc1C)[C@H]1CCCC[C@@H]1O [Example 106, (2R,3R,4S,5R,6R)-N-(2,5-dimethylbenzo[d]thiazol-6-yl)-5-hydroxy-N-((1S,2S)-2-hydroxycyclohexyl)-6-(hydroxymethyl)-3-methoxy-4-(4-(3,4,5-trifluorophenyl)-1H-1,2,3-triazol-1-yl)tetrahydro-2H-pyran-2-carboxamide] | 143 | 56
13 | CO[C@@H]1[C@@H](n2cc(-c3cc(F)c(F)c(F)c3)nn2)[C@@H](O)[C@@H](CO)O[C@H]1C(=O)N(c1ccc2nc(Cl)sc2c1)[C@H]1CCCC[C@@H]1O [Example 107, (2R,3R,4S,5R,6R)-N-(2-chlorobenzo[d]thiazol-6-yl)-5-hydroxy-N-((1S,2S)-2-hydroxycyclohexyl)-6-(hydroxymethyl)-3-methoxy-4-(4-(3,4,5-trifluorophenyl)-1H-1,2,3-triazol-1-yl)tetrahydro-2H-pyran-2-carboxamide] | 1200 | 317
